Test results published in US9931329B2, “Phenyl triazole derivative and its use for modulating the GABAA receptor complex” (SANIONA A/S, priority 2012, dated 2018).

What was measured:
[1] = molecular target: T1, human GABAA α5β3*γ2S receptor (Homo sapiens, UniProt P18507+P31644); test: In vitro inhibition of 3H-flumazenil binding, HEK cells expressing human GABAA α5β3*γ2S receptor
T1 construct: expressed in transfected cells
Description: When the cultures reach confluency, the DMEM is removed and the cells are washed (10 ml for T175 flasks; 50 ml for roller bottles) once in Dulbecco's Phosphate Buffered Saline (DPBS). Following addition of DPBS to the cultures (10 ml for T175 flasks; 100 ml for roller bottles) for approximately 5 min cells are easily detached from the surface by shaking or tapping the flask gently. The cell suspension is transferred to Falcon tubes and centrifuged at 23,500×g for 10 min at 2° C. The pellet is washed once in 15 ml Tris-citrate buffer (50 mM, pH 7.1) using an Ultra-Turrax homogenizer and centrifuged at 2° C. for 10 min at 27,000×g. The washed pellet is re-suspended in 15 ml Tris-citrate buffer and frozen at −80° C. until the day of the binding experiment.
On the day of the experiment the cell membrane preparation is thawed and centrifuged at 2° C. for 10 min at 27,000×g.
Non-specific binding is determined using clonazepam (1 μM, final concentration). […]
The amount of radioactivity on the filters is determined by conventional liquid scintillation counting using a […]
where B is the binding in percentage of total specific binding; C is the concentration of test compound; and n is the Hill coefficient. […] The IC50 value is calculated from the concentration response curves by the non-linear regression method using the curve-fitting program GraphPad Prism.

T1 sequence (P31644 32-462): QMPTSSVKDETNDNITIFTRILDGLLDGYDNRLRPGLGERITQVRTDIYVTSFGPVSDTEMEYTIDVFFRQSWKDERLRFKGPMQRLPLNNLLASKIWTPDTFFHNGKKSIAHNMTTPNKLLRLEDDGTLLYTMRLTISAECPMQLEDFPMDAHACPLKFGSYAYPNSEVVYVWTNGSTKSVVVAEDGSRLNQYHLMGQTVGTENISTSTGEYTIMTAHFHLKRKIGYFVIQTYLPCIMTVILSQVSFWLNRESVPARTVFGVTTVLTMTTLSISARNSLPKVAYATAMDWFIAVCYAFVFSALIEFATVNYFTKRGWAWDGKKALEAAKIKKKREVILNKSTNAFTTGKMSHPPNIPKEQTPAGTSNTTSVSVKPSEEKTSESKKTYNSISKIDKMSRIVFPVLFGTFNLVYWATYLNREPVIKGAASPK
T1 sequence (P18507 40-467 isoform P18507-1 limits assumed): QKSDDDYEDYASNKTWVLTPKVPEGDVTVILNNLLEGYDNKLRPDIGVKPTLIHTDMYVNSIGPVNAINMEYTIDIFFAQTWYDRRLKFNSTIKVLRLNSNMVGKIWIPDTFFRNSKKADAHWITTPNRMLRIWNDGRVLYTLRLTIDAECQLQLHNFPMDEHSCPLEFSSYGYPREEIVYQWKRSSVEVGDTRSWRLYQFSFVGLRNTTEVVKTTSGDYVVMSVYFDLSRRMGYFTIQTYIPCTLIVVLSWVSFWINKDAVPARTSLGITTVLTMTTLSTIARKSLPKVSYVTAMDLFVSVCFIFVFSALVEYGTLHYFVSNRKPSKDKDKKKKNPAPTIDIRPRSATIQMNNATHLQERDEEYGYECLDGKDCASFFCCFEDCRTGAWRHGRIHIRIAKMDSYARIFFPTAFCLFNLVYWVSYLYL

melting point: 178 to 181.5 °C | Ki [1]: 20 nM
SMILES: Cn1nnc(-c2ccccc2F)c1COc1ccc(-n2cnc(C#N)c2)cn1 [Compound 7, 1-{6-[5-(2-Fluoro-phenyl)-3-methyl-3H-[1,2,3]triazol-4-ylmethoxy]-pyridin-3-yl}-1H-imidazole-4-carbonitrile]
